Structure (SMILES)	melting point [°C]
O=C(c1ccc(Cl)c([N+](=O)[O-])c1)C1CC1	78 to 80
Cc1cc(Cl)ccc1N=CN(C)C	35
c1ccc(-n2nc3ccccc3n2)cc1	107
NNC(=O)c1cccc(OCc2ccccc2)c1	113 to 115
O=C1OC(=O)C2=C1CC1=C(CC=CC1)C2	204
Cc1ccc(S(=O)(=O)n2cc(C=O)c3ccccc32)cc1	138 to 140
O=C1OC(=O)c2cc3ccccc3cc21	249
O=Cc1c[nH]c2ccc(OCc3ccccc3)cc12	241
Cc1ccc(-c2csc(N)n2)cc1	137
O=C1NC(=O)C(=Cc2ccc(-c3ccccc3Br)o2)C(=O)N1	255
Fc1c(Cl)c(F)c(Br)c(F)c1Cl	58 to 59.5
Cc1cc(O)ncc1[N+](=O)[O-]	189
C=CCN=C(S)NCCO	78
O=Cc1ccc(N2CCCCC2)cc1	62 to 63
Cc1nc(-c2ccc(C=O)cc2)no1	115
NC(=O)c1sccc1Br	78
CCCC1Nn2c(nnc2-c2cccc([N+](=O)[O-])c2)S1 (stereo not drawn)	129
Cc1cc2c(o1)-c1c(oc3c(Br)cc(Br)cc13)CCC2C (stereo not drawn)	121
C/C(=N\Nc1ccccc1)c1nc2c(ccc3ccccc32)nc1C	209
O=C(O)c1cc([N+](=O)[O-])cc(S(=O)(=O)Nc2ccccc2)c1	177
COc1cncc(Br)c1	31
C=COCCCC	-92
Brc1cccs1	-10
N#CCC(=O)c1ccc(OC(F)(F)F)cc1	82 to 84
C[Si](C)(C)OC1(C#N)c2ccccc2CCc2ccccc2C1(C#N)O[Si](C)(C)C (stereo not drawn)	88
N#CCC(=O)c1cccs1	112
O=[N+]([O-])CCO	-80

Structure (SMILES)	melting point [°C]
Cc1ccc(S(=O)(=O)NC(=O)NN2CCCCCC2)cc1	170
Nn1c(S(=O)(=O)O)nc2ccccc21	252 to 253
O=C1CCCCC1Cl (stereo not drawn)	23
O=C(NCCBr)c1cc([N+](=O)[O-])cc([N+](=O)[O-])c1	140
Ic1ccc(N2CCOCC2)cc1	131 to 132
CC1=NN(c2ccccc2)C(=O)C1C1C(=O)N(c2ccccc2)N=C1C (stereo not drawn)	355
C=CCCCCCCCCCCC	-13
Cc1ccc(CCl)cc1[N+](=O)[O-]	46 to 50
C=C(C)C1CCC2(CO)CCC3(C)C(CCC4C5(C)CCC(O)C(C)(C)C5CCC43C)C12 (stereo not drawn)	250
Cc1ccc(NN=C2C(=O)NN=C2C(F)(F)F)cc1	230
CCCCCCCCC(=O)NCc1ccc(O)c(OC)c1	57
CC(=O)C1C(=O)c2ccccc2CC1c1ccccc1 (stereo not drawn)	67
COc1ccc(C2(C)CCc3oc4ccc(C)cc4c3-c3oc(C)cc32)cc1 (stereo not drawn)	170
CCCBr	-110
O=C(CCl)NC1CC1	82
NC(c1cccc2ccccc12)C(N)c1cccc2ccccc12 (stereo not drawn)	174 to 177
CC12CCC(=O)C=C1CCC1C2CCC2(C)C(O)CCC12 (stereo not drawn)	153
Brc1ccc(-c2ccc(Br)cc2)cc1	167
CC1(C)CCC(O)CC1	28 to 30
O=c1n2ccccc2nc2nc3ccccc3n12	338 to 340
Clc1c(Cl)c(Cl)c2c(c1Cl)Oc1ccccc1O2	188
c1cc2ccc3cccc4ccc(c1)c2c34	153
CC(=O)OC1CCC2C3CCC45OC4C(=O)C=CC5(O)C3CCC12C (stereo not drawn)	178
O=C1C=CC(=O)[C@@H]2Cc3ccccc3C[C@H]12	127 to 128
CCCCNCCO	-2
COc1ccc(-c2n[nH]cc2C=O)cc1	160 to 161
Cc1cc2occc(=O)c2cc1Cl	171

Structure (SMILES)	melting point [°C]
O=c1[nH]nc(-c2ccccc2)c2ccccc12	240
Cc1onc(-c2ccccc2)c1I	104 to 105
O=C(O)c1ccc(Cn2cncn2)cc1	227 to 229
COc1cc(C)c(CCl)cc1CCl	78
c1ccc(C2CC2)cc1	-31
Cc1noc(N)c1[N+](=O)[O-]	154 to 156
O=P(OC(Cl)CCCl)(OC(Cl)CCCl)OC(Cl)CCCl (stereo not drawn)	26.7
N#Cc1cc2ccccc2c2ccccc12	111
CC(=NO)c1cccnc1	103 to 105
O=C(O)C1c2ccccc2-c2ccccc21	229
O=[N+]([O-])c1cccc(-c2nnc3n2NC(c2ccco2)S3)c1 (stereo not drawn)	190
OCC1CCCCC1	-43
CCCCCCCc1ccc(C(=O)Oc2ccc(C#N)cc2)cc1	43 to 46
CC12CCC(O)CC1=CCC1C2CCC2(C)C1CCC2(O)C#CCl (stereo not drawn)	175 to 177
N#CCCCCCC#N	-31.4
CCCCCCc1ccc(O)cc1	32
N#CCc1cc(Cl)ccc1[N+](=O)[O-]	87
Cc1ccnc(C#N)c1	87
Cc1cc(=O)[nH]c(=S)[nH]1	317 to 318
O=C1NC(=O)C(=NNc2ccccc2[N+](=O)[O-])C(=O)N1	290
OCc1ccc(-c2ccncc2)cc1	173 to 176
Nc1ccnc(Br)c1	98
CC1CCC(=O)N1 (stereo not drawn)	43
OCc1cccnc1N1CCOCC1	80 to 83
CCCCCCCC(=O)Cl	-63

Continued, values first:

melting point [°C]	Structure (SMILES)
248 to 250	Cc1cc(O)c(Cc2c(O)cc(C)oc2=O)c(=O)o1
151 to 152	O=C(N[C@@H](Cc1ccccc1)C(=O)Oc1c(F)c(F)c(F)c(F)c1F)OCC1c2ccccc2-c2ccccc21
174	Cc1c(F)c(F)c(C(=O)O)c(F)c1F
293	O=C(O)c1cc(O)cc(C(=O)O)c1
18	O=C(O)CCS
3 to 5	CC(C)OC(=O)N=NC(=O)OC(C)C
-28	CCCCOC(=O)C(C)O (stereo not drawn)
258 to 262	C[C@@]1(CO)N[C@H](C(=O)O)CC2c3ccccc3NC21 (stereo partly drawn)
163 to 166	O=C(O)C=Cc1cccc(Cl)c1
167 to 170	O=C1C2C3C=CC(C3)C2C(=O)N1O (stereo not drawn)
73 to 75	Cc1cccc(C(=O)CC#N)c1
90.5	CC(C)(C)C(=O)C(=O)O
300	CNC(C)(C)C(=O)O
177	COc1ccccc1C=CC(=O)c1ccc(O)cc1O
211	NCCCCCC(=O)O
119	CC(=O)C(=O)c1cc(C(=O)C(C)=O)c([N+](=O)[O-])cc1[N+](=O)[O-]
81 to 82	COC(=O)c1cc2occc2n1C
79	CCCCCCCCCCCCCCCCCC(=O)OCCOC(=O)CCCCCCCCCCCCCCCCC
175	COC(=O)C1=C(C)NC(=S)NC1c1ccc([N+](=O)[O-])cc1 (stereo not drawn)
290	Nc1ccc(C(=O)O)cc1[N+](=O)[O-]

melting point [°C]	Structure (SMILES)
211	O=C(Nc1ccccc1)c1cc(Cl)ccc1O
47	CC(C)c1cccc(O)c1O
164	COc1ccc(C=C2C(=O)OC(C)(C)OC2=O)cc1OC
172	CC(=O)N[C@@H](Cc1ccccc1)C(=O)O
72 to 74	CC(=NO)c1ccc(F)cc1
36	CCOc1ccc(C(=O)OC)cc1
99 to 101	COc1ccc(CC(=O)O)c(OC)c1OC
115 to 117	CCOC(=O)c1c(NC(=O)CCl)sc2c1CCCC2
110	C=CCN(CC=C)C(SC)=C(C#N)C(N)=O
-30	CCN(CC)CC(O)CO (stereo not drawn)
152	COCCOc1cnc(NS(=O)(=O)c2ccccc2)nc1
171 to 173	Cc1cc(C(N)=O)no1
248	O=C(O)CNCC(=O)O
212	CC1CCC(C)(C(=O)N(C(=O)C2(C)CCC(C)C2(C)C)c2ccccc2)C1(C)C (stereo not drawn)
109	CC12CCC(C(=O)/C(=N\O)C1=O)C2(C)C (stereo not drawn)
167 to 170	CC(C)n1c(O)nnc1S
81 to 83	CC(C)(C)OC(=O)c1cccc(N)c1
195	NC(CCC(=O)NC(CS)C(=O)NCC(=O)O)C(=O)O (stereo not drawn)
151	NC(=O)OCC(COC(N)=O)c1ccccc1
68.3 to 71.3	COC(=O)CC(C)CCC1C(C)(O)CCC2C(C)(C)CCCC21C (stereo not drawn)

melting point [°C]	Structure (SMILES)
157	COc1ccc2c(c1O)CN1CCC(=O)CC1C2O (stereo not drawn)
115	O=C(C=Cc1ccc(OC(=O)c2ccco2)cc1)c1ccccc1
80	COc1ccc2c(c1C)CC2C#N (stereo not drawn)
-56	CCCCCCC(=O)OC
156	CCS(=O)(=O)c1nnc(N(C)C(=O)NC)s1
29	CCOC(=O)c1cccc(N)c1
139	CCCn1c(C(=O)O)cc2c(=O)n(C)c(=O)n(C)c21
31	CC(C)COc1ccc2ccccc2c1
36.5	CC(=O)CC(=O)O
190	O=C(O)CN(CC(=O)O)Cc1cc2c(c(O)c1O)C(=O)c1ccccc1C2=O
320 to 322	NC1(C(=O)O)CCCC1
136 to 137	Cc1ccc(C(N)=NO)cc1
209 to 212	O=C(O)C=CC(=O)Nc1ccc(F)cc1
128 to 130	CCC(=O)c1ccc(O)c(C)c1O
54 to 55	CCCCNC(=O)CC#N
148	Cc1ccc(/C=C(\C(N)=O)c2nc3ccccc3s2)cc1
81.5	Cc1nn(C)c(C)c1C=O
47.5	CC#CCOS(=O)(=O)c1ccc(C)cc1
136 to 139	CC(C)(C)OC(=O)N[C@@H](CO)c1ccccc1

Source: a melting point compilation (Tetko et al.)
